Data: publication PMC6044831 (ACS Omega, 2018)

Experiment: Storage stability of [^125I] 5 in the refrigerator
Type: physicochemical
Conditions: 4 °C, storage time over which compound found stable

stable in the refrigerator (no hydrolysis): more than 6 months
Compound: O=CCCCNC(=O)c1ccc([125I])cc1 [[^125I] 5]
